Assay results taken from PMC11281459 (Viruses, 2024).
Values joined by “and” are separate entries in the source; they are usually repeats but may differ in a detail not shown here. Equal entries are not always repeated. Where two headings read alike, the source gives them in different places.

Experiments:
SARS-CoV-2 replicon [1] = experiment: microbe, parasite or virus in culture; conditions: Severe acute respiratory syndrome coronavirus 2, A549, read-out: EC50 Geomean
SARS-CoV-2 = experiment: microbe, parasite or virus in culture; type: cell-based
in vitro [2] = conditions: human
SARS-CoV-2 USA-WA1/2020 = test system: SARS-CoV-2 USA-WA1/2020; design: species or system transgenic K18-hACE2 mice; conditions: mouse, in vivo
hCoV-OC43 = experiment: microbe, parasite or virus in culture; type: cell-based; conditions: Betacoronavirus 1, OC43, Huh-7, 120 h, read-out: EC50 Geomean
in vitro [3] = conditions: African green monkey
MERS-CoV [4] = experiment: microbe, parasite or virus in culture; type: cell-based; conditions: for EC90: read-out: EC90 Mean ± SD
COVID-19 = conditions: human, in vivo; cited from earlier work
MERS-CoV replicon = experiment: microbe, parasite or virus in culture; type: cell-based; conditions: Middle East respiratory syndrome-related coronavirus, A549, read-out: EC50 Geomean
[5] = in vivo; cited from earlier work
hCoV-229E = experiment: microbe, parasite or virus in culture; type: cell-based; conditions: Human coronavirus 229E, Huh-7, 120 h, read-out: EC50 Geomean
MERS-CoV [6] = experiment: microbe, parasite or virus in culture; type: cell-based; conditions: read-out: IC50 Mean ± SD
MERS-CoV EMC 2012 = conditions: mouse, in vivo
[7] = K18-hDPP4, mouse, in vivo
hCoV-OC43 3CLPro = hCoV-OC43 3CLPro (Human coronavirus OC43, UniProt P0C6X6); experiment: biochemical
Sequence of hCoV-OC43 3CLPro (P0C6X6 3247-3549 limits assumed): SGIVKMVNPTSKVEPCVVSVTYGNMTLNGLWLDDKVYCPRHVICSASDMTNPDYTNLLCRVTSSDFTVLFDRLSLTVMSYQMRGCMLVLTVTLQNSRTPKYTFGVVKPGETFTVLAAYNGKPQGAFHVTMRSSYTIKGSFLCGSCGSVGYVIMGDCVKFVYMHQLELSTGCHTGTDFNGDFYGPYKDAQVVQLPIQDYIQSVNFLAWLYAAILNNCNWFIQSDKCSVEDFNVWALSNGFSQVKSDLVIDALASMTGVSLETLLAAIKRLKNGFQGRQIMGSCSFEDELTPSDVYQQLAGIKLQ

SARS-CoV-2 replicon [8] = conditions: read-out: EC50 Geomean
hCoV-229E 3CLPro = hCoV-229E 3CLPro (Human coronavirus 229E, UniProt P0C6X1); experiment: biochemical
Sequence of hCoV-229E 3CLPro (P0C6X1 2966-3267 limits assumed): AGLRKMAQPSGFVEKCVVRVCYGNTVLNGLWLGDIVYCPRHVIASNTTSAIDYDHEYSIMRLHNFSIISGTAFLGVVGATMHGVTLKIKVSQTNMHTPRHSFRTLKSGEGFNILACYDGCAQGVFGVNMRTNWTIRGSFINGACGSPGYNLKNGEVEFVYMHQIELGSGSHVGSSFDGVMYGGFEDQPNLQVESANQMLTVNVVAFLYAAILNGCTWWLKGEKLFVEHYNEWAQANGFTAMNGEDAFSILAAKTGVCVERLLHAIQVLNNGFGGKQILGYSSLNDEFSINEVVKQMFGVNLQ

in vivo = conditions: female, CD-1, mouse; for AUC: po
hCoV-NL63 3CLPro = hCoV-NL63 3CLPro (Human coronavirus NL63, UniProt P0C6X5); experiment: biochemical
Sequence of hCoV-NL63 3CLPro (P0C6X5 2940-3242 limits assumed): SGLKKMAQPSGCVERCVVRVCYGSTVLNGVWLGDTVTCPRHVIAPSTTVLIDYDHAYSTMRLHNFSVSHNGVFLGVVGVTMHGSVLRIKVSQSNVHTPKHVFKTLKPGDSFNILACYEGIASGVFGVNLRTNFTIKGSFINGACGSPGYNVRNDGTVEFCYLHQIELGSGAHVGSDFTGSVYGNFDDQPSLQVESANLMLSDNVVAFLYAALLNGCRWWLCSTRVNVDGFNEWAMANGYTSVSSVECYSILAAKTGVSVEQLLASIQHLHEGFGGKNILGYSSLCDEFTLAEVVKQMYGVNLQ

hCoV-HKU1 3CLPro = hCoV-HKU1 3CLPro (Human coronavirus HKU1, UniProt P0C6X2); experiment: biochemical
Sequence of hCoV-HKU1 3CLPro (P0C6X2 3335-3637 limits assumed): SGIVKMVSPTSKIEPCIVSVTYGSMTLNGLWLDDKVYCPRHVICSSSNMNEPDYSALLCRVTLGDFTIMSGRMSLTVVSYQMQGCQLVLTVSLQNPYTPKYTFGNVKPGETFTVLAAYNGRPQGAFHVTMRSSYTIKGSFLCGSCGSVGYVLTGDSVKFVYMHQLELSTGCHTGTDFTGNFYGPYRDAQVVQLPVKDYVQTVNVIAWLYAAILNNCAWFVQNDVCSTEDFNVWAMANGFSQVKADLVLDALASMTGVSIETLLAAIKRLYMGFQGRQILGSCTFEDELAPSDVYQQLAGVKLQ

SARS-CoV-1 3CLPro = SARS-CoV-1 3CLPro (Severe acute respiratory syndrome coronavirus, UniProt P0C6X7); experiment: biochemical
MERS-CoV 3CLPro = MERS-CoV 3CLPro (Middle East respiratory syndrome-related coronavirus, UniProt K9N7C7); experiment: biochemical
Sequence of MERS-CoV 3CLPro (K9N7C7 3248-3553 limits assumed): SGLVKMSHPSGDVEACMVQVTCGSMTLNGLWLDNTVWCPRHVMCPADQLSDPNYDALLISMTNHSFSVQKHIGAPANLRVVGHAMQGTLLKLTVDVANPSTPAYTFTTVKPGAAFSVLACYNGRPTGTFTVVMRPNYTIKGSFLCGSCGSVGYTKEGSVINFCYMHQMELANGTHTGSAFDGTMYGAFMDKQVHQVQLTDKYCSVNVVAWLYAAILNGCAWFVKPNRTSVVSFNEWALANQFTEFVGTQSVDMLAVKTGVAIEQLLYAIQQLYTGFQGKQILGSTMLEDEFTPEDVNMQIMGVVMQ

[9] = in vivo
[10] = test system: SARS-CoV-2 (Omicron EG.5.1) and MERS-CoV; type: cell-based
[11] = Severe acute respiratory syndrome coronavirus 2, read-out: EC50 Geomean
[12] = Middle East respiratory syndrome-related coronavirus, VeroE6/TMPRSS2, 72 h, read-out: EC50 Mean ± SD
[13] = Middle East respiratory syndrome-related coronavirus, read-out: EC50 Geomean
[14] = Middle East respiratory syndrome-related coronavirus
[15] = Middle East respiratory syndrome-related coronavirus, VeroE6/TMPRSS2, 48 h

`CC(C)(C)[C@H](NC(=O)C(F)(F)F)C(=O)N1C[C@H]2[C@@H]([C@H]1C(=O)N[C@H](C#N)C[C@@H]1CCNC1=O)C2(C)C` [Nirmatrelvir, nirmatrelvir] gave an EC50 (SARS-CoV-2 replicon [1]) of 10 nM, an EC50 (SARS-CoV-2; [11]) of 70 nM and an EC50 (SARS-CoV-2; read-out: EC50 Mean ± SD) of 50 ± 10 nM. For the same molecule, the EC50 (in vitro [2]) was greater than 36000 nM, the “lung pathology compared with vehicle group (H&E, semi-quantitative)” value (SARS-CoV-2 USA-WA1/2020) was “similar” and the “lung viral loads (TCID50), dose validation” value (SARS-CoV-2 USA-WA1/2020) was “significant reduction in the lung viral loads”. The “viral lung burden (TCID50 and PFU assay)” value (SARS-CoV-2 USA-WA1/2020) was ~ 6 logs, the EC50 (hCoV-OC43) was 163 nM and the CC50 (in vitro [3]) was greater than 100000 nM. For the same molecule, the EC50 (MERS-CoV [4]; [12]) was 88 ± 30 nM, the EC50 (MERS-CoV [4]; [13]) was 70 nM and the EC90 (MERS-CoV [4]; [14]) was 164 ± 10 nM. The “reduction in hospitalization rates and deaths” value (COVID-19) was 80–90%, the EC50 (MERS-CoV replicon) was 60 nM and the “increase of plasma levels by ritonavir” value [5] was “up to 20 fold”. For the same molecule, the EC50 (hCoV-229E) was 473 nM, the IC50 (MERS-CoV [6]; [15]) was 117 ± 23 nM and the “lung viral loads (TCID50), dose validation” value (MERS-CoV EMC 2012) was “significant reduction in the lung viral loads”.
With `CNC(=O)C(=O)[C@H](CCC(C)(F)F)NC(=O)[C@@H]1[C@H]2CCC[C@H]2CN1C(=O)[C@@H](NC(=O)OC)C(C)(C)C` [MK-7845] the “plasma levels at troughs versus PBA EC90” value [7] was “above the PBA EC90”, the IC50 (hCoV-OC43 3CLPro) was 17 nM and the EC50 (SARS-CoV-2; [11]) was 140 nM. The EC50 (in vitro [2]) was greater than 36000 nM, the EC50 (SARS-CoV-2 replicon [8]) was 15 nM and the body weight change (SARS-CoV-2 USA-WA1/2020) was “gained weight”. For the same molecule, the “lung pathology (H&E, semi-quantitative)” value (SARS-CoV-2 USA-WA1/2020) was “significantly reduced”, the “lung pathology compared with vehicle group (H&E, semi-quantitative)” value (SARS-CoV-2 USA-WA1/2020) was “similar” and the “reduction in lung viral load (TCID50)” value (SARS-CoV-2 USA-WA1/2020) was “no significant reduction in viral load”. The “reduction in viral burden (TCID50) versus the nirmatrelvir group” value (SARS-CoV-2 USA-WA1/2020) was 3.4 log and 5 log, the “reduction in viral load by PFU assay compared to vehicle control” value (SARS-CoV-2 USA-WA1/2020) was “did not show a significant reduction in viral load” and the “reduction of lung viral load (TCID50) compared to vehicle control” value (SARS-CoV-2 USA-WA1/2020) was ~ 5 logs and ~ 6 logs. The “reduction in viral burdens in the lungs” value (SARS-CoV-2 USA-WA1/2020; po) was greater than 6 log orders, the IC50 (hCoV-229E 3CLPro) was 307 nM and the EC50 (hCoV-OC43) was 370 nM. It also gave a CC50 (in vitro [3]) greater than 100000 nM, a Vd (in vivo; iv, 5 mg/kg) of 1.2 L/kg and a clearance (in vivo; iv, 5 mg/kg) of 17.5 mL/min/kg. For the same molecule, the half-life (in vivo; iv, 5 mg/kg) was 47.4 min, the AUC (in vivo; 100 mg/kg) was 49.1 µg·h/mL and the AUC (in vivo; 250 mg/kg) was 146 µg·h/mL. The AUC (in vivo; 500 mg/kg) was 238 µg·h/mL, the AUC (in vivo; 1000 mg/kg) was 306 µg·h/mL and the EC50 (MERS-CoV [4]; [12]) was 460 nM. It also gave an EC50 (MERS-CoV [4]; [13]) of 390 nM, an EC90 (MERS-CoV [4]; [14]) of 541 ± 10 nM and an EC50 (MERS-CoV [4]; read-out: EC50 Mean ± SD) of 463 ± 8 nM. For the same molecule, the IC50 (hCoV-NL63 3CLPro) was 167 nM, the EC50 (MERS-CoV replicon) was 270 nM and the “unbound mouse plasma fraction (fup)” value was 0.379. The IC50 (hCoV-HKU1 3CLPro) was 25.5 nM, the EC50 (hCoV-229E) was 3150 nM and the IC50 (MERS-CoV [6]; [15]) was 360 nM. The IC50 (MERS-CoV [6]) was 362 ± 65 nM, the IC50 (SARS-CoV-1 3CLPro) was 19.2 nM and the “PFU assay of lung homogenate” value (MERS-CoV EMC 2012) was “no plaques were formed”. For the same molecule, the “decrease in viral burden by PFU assay compared to vehicle-treated mice” value (MERS-CoV EMC 2012) was ~ 6 log, the “lung pathology (H&E, semi-quantitative)” value (MERS-CoV EMC 2012) was “notable reduction in lung pathology” and the “reduction in viral burden compared to vehicle-control group” value (MERS-CoV EMC 2012) was 3 log TCID50. The “reduction in viral load by PFU assay in comparison to nirmatrelvir” value (MERS-CoV EMC 2012) was 2.9 log and 3.6 log, the “viral genomic RNA in lung tissue by RT-PCR” value (MERS-CoV EMC 2012) was “did not observe a significant reduction” and the “reduction in viral burdens in the lungs” value (MERS-CoV EMC 2012; po) was greater than 6 log orders. For the same molecule, the IC50 (MERS-CoV 3CLPro) was 318 nM, the “plasma concentrations versus PBA EC90” value ([9]; CD-1, mouse) was “above the PBA EC90” and the “total plasma concentrations versus replicon EC90 and PBA EC90” value ([9]; mouse) was “stayed above”.
In the case of `COc1cc2c(cc1OC)CN(CCc1ccc(NC(=O)c3cccc4c(=O)c5cccc(OC)c5[nH]c34)cc1)CC2` [elacridar], the “effect of P-GP inhibitor on the infection” value [10] is reported as “did not show an effect on the infection” and the “toxicity of P-GP inhibitor to cells” value (Vero E6+TMPRSS2 cells) is reported as “not toxic”.
`CCC(CC)COC(=O)[C@H](C)N[P@](=O)(OC[C@H]1O[C@@](C#N)(c2ccc3c(N)ncnn23)[C@H](O)[C@@H]1O)Oc1ccccc1` [Remdesivir, remdesivir] showed an EC50 (SARS-CoV-2 replicon [1]) of 270 nM, an EC50 (SARS-CoV-2; Severe acute respiratory syndrome coronavirus 2, VeroE6/TMPRSS2, 72 h, read-out: EC50 Mean ± SD) of 149 ± 4 nM and an EC50 (SARS-CoV-2; [11]) of 170 nM. The EC50 (SARS-CoV-2; read-out: EC50 Mean ± SD) was 110 nM and 163 nM and 94 nM and 155 nM and 90 nM and 141 nM and 150 nM, the CC50 (in vitro [3]) was 20000 nM and the EC50 (MERS-CoV [4]; [12]) was 110 ± 18 nM. The EC50 (MERS-CoV [4]; [13]) was 150 nM, the EC90 (MERS-CoV [4]; [14]) was 240 ± 93 nM and the EC50 (MERS-CoV replicon) was 780 nM. For the same molecule, the “shift in activity in the presence versus the absence of the P-GP inhibitor” value [10] was “significant shift in activity” and the IC50 (MERS-CoV [6]; [15]) was 167 ± 33 nM.
